Paper PMC3026633 (Neuropharmacology, 2010)

How the values were obtained:
wild-type α1β2γ2 GABAR = wild-type α1β2γ2 GABAR (Rattus norvegicus, UniProt P18508+P62813+P63138); details: WT GABARs; DMCM; ref Boileau and Czajkowski, 1999; Hanson and Czajkowski, 2008; cited from earlier work
α1E122Cβ2γ2 GABAR = α1E122Cβ2γ2 GABAR (Rattus norvegicus, UniProt P18508+P62813+P63138, E149C); test: Two-electrode voltage clamp of GABA-gated current in Xenopus oocytes; assay type: cell-based
α1β2P206Cγ2 GABAR = α1β2P206Cγ2 GABAR (Rattus norvegicus, UniProt P18508+P62813+P63138, P230C); test: as above; assay type: cell-based; details: 100nM DMCM, saturating
α1R131Cβ2γ2 GABAR = α1R131Cβ2γ2 GABAR (Rattus norvegicus, UniProt P18508+P62813+P63138, R158C); test: as above; assay type: cell-based; details: 1μM flumazenil
α1R131Cβ2γ2 GABAR, sequence (P62813 28-455 R158C): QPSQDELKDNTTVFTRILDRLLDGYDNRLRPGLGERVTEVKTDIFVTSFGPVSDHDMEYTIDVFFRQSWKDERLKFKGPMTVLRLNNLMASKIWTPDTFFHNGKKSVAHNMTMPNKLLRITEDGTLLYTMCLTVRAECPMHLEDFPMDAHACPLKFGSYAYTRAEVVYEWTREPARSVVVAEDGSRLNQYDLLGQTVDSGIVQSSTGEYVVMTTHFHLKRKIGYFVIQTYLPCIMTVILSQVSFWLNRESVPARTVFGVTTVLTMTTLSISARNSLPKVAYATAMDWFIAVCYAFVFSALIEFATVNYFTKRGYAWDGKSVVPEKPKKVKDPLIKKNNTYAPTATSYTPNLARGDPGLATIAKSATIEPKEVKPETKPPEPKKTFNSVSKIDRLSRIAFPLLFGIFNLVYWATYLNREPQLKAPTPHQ
α1R131Cβ2γ2 GABAR, sequence (P63138 25-474 limits assumed): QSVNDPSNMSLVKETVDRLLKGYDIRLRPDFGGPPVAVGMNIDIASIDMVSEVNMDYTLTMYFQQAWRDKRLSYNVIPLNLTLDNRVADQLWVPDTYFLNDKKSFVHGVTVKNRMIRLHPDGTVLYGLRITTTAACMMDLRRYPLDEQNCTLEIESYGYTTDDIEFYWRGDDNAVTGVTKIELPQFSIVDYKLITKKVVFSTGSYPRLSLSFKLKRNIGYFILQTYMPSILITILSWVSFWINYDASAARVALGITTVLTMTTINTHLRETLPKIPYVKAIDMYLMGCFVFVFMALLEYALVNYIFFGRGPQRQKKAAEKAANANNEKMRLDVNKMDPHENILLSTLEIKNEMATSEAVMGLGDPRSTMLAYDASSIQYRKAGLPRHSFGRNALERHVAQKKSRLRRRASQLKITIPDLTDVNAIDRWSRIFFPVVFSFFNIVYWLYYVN
α1R131Cβ2γ2 GABAR, sequence (P18508 39-466): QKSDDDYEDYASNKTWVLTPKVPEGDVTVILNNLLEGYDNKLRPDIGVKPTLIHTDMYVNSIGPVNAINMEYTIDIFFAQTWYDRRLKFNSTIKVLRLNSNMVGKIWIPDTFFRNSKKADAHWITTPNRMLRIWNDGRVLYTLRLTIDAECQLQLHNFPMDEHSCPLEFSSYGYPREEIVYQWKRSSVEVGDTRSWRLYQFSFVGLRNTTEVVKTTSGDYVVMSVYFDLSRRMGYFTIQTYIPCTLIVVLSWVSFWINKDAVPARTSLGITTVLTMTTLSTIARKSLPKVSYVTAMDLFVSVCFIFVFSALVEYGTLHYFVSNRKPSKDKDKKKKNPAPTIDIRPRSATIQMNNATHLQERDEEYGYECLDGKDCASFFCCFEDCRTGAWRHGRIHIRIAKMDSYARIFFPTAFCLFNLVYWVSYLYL

α1E122Cβ2γ2 GABAR, sequence (P62813 28-455 E149C): as the sequence (P62813 28-455 R158C) above, with E122C, C131R counted along it
α1E122Cβ2γ2 GABAR, sequence (P63138 25-474 limits assumed): as the sequence (P63138 25-474 limits assumed) above
α1E122Cβ2γ2 GABAR, sequence (P18508 39-466): as the sequence (P18508 39-466) above
α1β2P206Cγ2 GABAR, sequence (P62813 28-455): as the sequence (P62813 28-455 R158C) above, with C131R counted along it
α1β2P206Cγ2 GABAR, sequence (P63138 25-474 P230C limits assumed): as the sequence (P63138 25-474 limits assumed) above, with P206C counted along it
α1β2P206Cγ2 GABAR, sequence (P18508 39-466): as the sequence (P18508 39-466) above
wild-type α1β2γ2 GABAR, sequence (P62813 28-455): as the sequence (P62813 28-455 R158C) above, with C131R counted along it
wild-type α1β2γ2 GABAR, sequence (P63138 25-474 limits assumed): as the sequence (P63138 25-474 limits assumed) above
wild-type α1β2γ2 GABAR, sequence (P18508 39-466): as the sequence (P18508 39-466) above

| SMILES | maximal attenuation of GABA current (IGABA+DRUG/IGABA) (wild-type α1β2γ2 GABAR) | inhibition of IGABA (IGABA+DRUG/IGABA) (α1E122Cβ2γ2 GABAR; 100nM DMCM, saturating) | inhibition of IGABA (IGABA+DRUG/IGABA) (α1β2P206Cγ2 GABAR) | effect on GABA-gated current (α1R131Cβ2γ2 GABAR) | effect on GABA-gated current (α1E122Cβ2γ2 GABAR; 1μM flumazenil) |
| --- | --- | --- | --- | --- | --- |
| CCc1c(C(=O)OC)ncc2[nH]c3cc(OC)c(OC)cc3c12 [DMCM, 3-carbomethoxy-4-ethyl-6,7-dimethoxy-β-carboline] | 0.62 fold | 0.45 fold | 0.45 fold |  |  |
| CCOC(=O)c1ncn2c1CN(C)C(=O)c1cc(F)ccc1-2 [flumazenil] |  |  |  | had no effect | had no effect |
